The values below come from article PMC11284787, “Ligand-Directed Labeling of the Adenosine A1 Receptor in Living Cells” (Journal of Medicinal Chemistry, 2024).

One assay has as its target T1, NL-hA1AR (Homo sapiens, UniProt P30542).
T1 construct: expressed in transfected cells
T1 sequence (P30542 1-326): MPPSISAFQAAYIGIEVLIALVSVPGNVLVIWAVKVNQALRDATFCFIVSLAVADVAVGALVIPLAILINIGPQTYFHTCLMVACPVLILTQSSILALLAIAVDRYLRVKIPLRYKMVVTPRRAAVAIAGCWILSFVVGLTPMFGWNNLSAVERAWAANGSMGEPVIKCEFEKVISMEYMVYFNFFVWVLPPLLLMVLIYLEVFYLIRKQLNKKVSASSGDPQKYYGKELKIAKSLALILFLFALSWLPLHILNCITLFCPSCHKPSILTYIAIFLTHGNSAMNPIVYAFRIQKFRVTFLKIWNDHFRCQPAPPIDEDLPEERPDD
Nature of the assay: NanoBRET saturation ligand-binding assay, NL-hA1AR. On the procedure: The ligand-binding properties of the newly synthesized probes were assessed in a series of pharmacological assays. Initially, a NanoBRET[47],[48] saturation binding experiment was used to evaluate the binding affinity of ligand-directed probes functionally labeled with the SulfoCy5 fluorophore (11) to the NanoLuc(NL)-tagged[49] hA1AR expressed in HEK293T cells.
NanoBRET binding assay. All NanoBRET experiments were performed in white flat […]
37 °C for kinetic binding experiments. Emissions were read at 420 nm (80 nm bandpass; […]
the SulfoCy5-labelled probe. […]
nm emission by the 420 nm emission. The term “raw BRET ratio” refers to the unprocessed data as no background ratio has been subtracted. In all NanoBRET binding […]
competitive antagonist selective for the adenosine receptor under investigation […]
MRS1220 for the A3AR). HEK293T cells stably/transiently expressing Nluc-AR were […]
were incubated for 1 h at 37 °C. […]
NanoBRET saturation binding assay. Total and nonspecific saturation binding curves were fit simultaneously using the following equation: […]

Another assay deals with T2, SNAP-hA1AR.
T2 construct: expressed in transfected cells; host or cells: HEK293T, transient transfection (FuGENE HD)
Nature of the assay: Live-cell confocal microscopy of SNAP-hA1AR HEK293T cells. It is filed as cell-based, human. Particulars: for fluorescent labeling of SNAP-hA1AR at the plasma membrane: 125 nM 11 or 50 nM 12 (then MetTet-SulfoCy5) for 2 h; for labeling of SNAP-hA1AR after pretreatment with 10 μM DPCPX: 10 μM DPCPX pretreatment 30 min; for fluorescence intensity after 10 μM DPCPX added to prelabeled cells: prelabeled 2 h, then 10 μM DPCPX 1 h, P > 0.05. The text has this:
Having investigated the molecular pharmacology of 11 and 12 in a series of in vitro assays, we sought to apply the LD probes for studying A1AR localization and dynamics in living cells. To this end, LD probes 11 and 12 were initially used in confocal microscopy studies to test their ability to label and allow visualization of the SNAP-hA1AR in living HEK293T cells (Figure 6). […] With both probes, the fluorescence labeling colocalized with SNAP-hA1AR labeled with AF488 (Figure 6A,C top frames).
Cells were labeled with membrane impermeable SNAP-AF488 for 30 min prior to treatment with 11 and 12 for 2 h, respectively, with the latter followed by the addition of 1 μM methyltetrazine (Met-Tet) SulfoCy5 for 5 min prior to the acquisition of the single equatorial images. […] For all the conditions, left-hand frames represent the SulfoCy5 channel (magenta), middle frames are the SNAP-hA1AR AF488 (green) channel, and right-hand frames represent merged images of both channels, with white indicating the overlap of magenta and green. (B, E) Fluorescence intensity plots (16-bit) were generated for both SulfoCy5 and AF488 channels by hand drawing the region of interest (ROI) in images obtained as indicated in (A) and (C) using ImageJ (FIJI). Data points represent membrane fluorescence signals measured from ROI drawn in each cell, and error bars represent mean ± standard deviation (SD). Images are representative of images obtained from three independent experiments from which 72 to 83 cells were analyzed. Scale bars are = 13 μm for (A) and 10 μm for (C). (D) Schematic representation of the biorthogonal IEDDA reaction between the TCO group (covalently attached to the hA1AR by ligand-directed chemistry) and SulfoCy5-conjugated methyltetrazine (MetTet-SulfoCy5). Following the click IEDDA reaction, the formation of the 4,5-dihydropyridazine cycloadduct increases the fluorescence intensity of the fluorophore conjugated to the tetrazine moiety. […]
using a Zeiss LSM880 confocal microscope as described in the confocal imaging […]
HEK293T cells were seeded in 8-well plates (Nunc Lab-Tek, Thermo Fischer Scientific), pre-coated with Poly-D-Lysine, at 20,000 cells/well in DMEM/10% FCS.
24 h post seeding, cells were transiently transfected with human SNAP-A1. Transient transfections were carried out following manufacturer’s protocol: used FuGENE HD at 3:1 ratio of reagent to cDNA with a total of 300 ng cDNA per well. Transfection solutions were made up in Gibco Opti-MEM (Thermo Fischer Scientific), incubated at RT for 5 min and added as 11 µL per well. Cells were incubated for additional 24 h at 37 OC, 5% CO2. On the day of the experiment medium was removed and the cells were labelled for 30 min at 37 °C with 0.2 µM SNAP-surface AF488 in SFM. After washing twice with SFM the cells were treated with or without 10 µM competitive A 1AR- […]
Following the incubation step, the ligand-directed probe under investigation (SulfoCy5 or PEG-TCO) (11 or 12) was added to the appropriate wells at the required concentrations and incubated for 2 h. After that time, cells were washed 4x with warm HBSS, followed by the addition of 300 µL warm HBSS and imaged. For click-chemistry reactions, after washing 4x with warm HBSS, cells pre-labelled with the trans-cyclooctene-conjugated 12 (PEG-TCO) at 50 nM were subsequently treated with 1 µM Methyl-TetrazineSulfoCy5 (Lumiprobe, Germany) for 5 min at RT in the dark. Cells were washed 2x with warm HBSS and imaged. When […]
1 h before imaging. […]
Live cell imaging was performed using either a Zeiss LSM 710 or LSM880 laser scanning confocal microscope fitted with a Zeiss C-Apochromat 40 × 1.2 NA water immersion objective. A 633 nm HeNe laser was used for the excitation of SulfoCy5 fluorophore and a 488/561/633 dichroic, and the emission was detected between 634 […]
and 755 nm. A 488 nm […] laser was used to excite SNAP-AF488 and the emission was detected between 493 and 586 nm. The pinhole diameter (1 Airy Unit; 1.1 μm […]

On to `CCCCn1c(=O)c2[nH]c(C34CCC(C(=O)NCCNC(=O)CCNC(=O)c5ccc(OC(=O)CCCCC[N+]6=C(/C=C/C=C/C=C7/N(C)c8ccc(S(=O)(=O)O)cc8C7(C)C)C(C)(C)c7cc(S(=O)(=O)[O-])ccc76)c(F)c5)(CC3)CC4)nc2n(CCCC)c1=O` [Compound 11, 1-(6-(4-((3-((2-(4-(1,3-Dibutyl-2,6-dioxo-2,3,6,7-tetrahydro-1H-purin-8-yl)bicyclo[2.2.2]octane-1-carboxamido)ethyl)amino)-3-oxopropyl)carbamoyl)-2-fluorophenoxy)-6-oxohexyl)-3,3-dimethyl-2-((1E,3E)-5-((E)-1,3,3-trimethyl-5-sulfoindolin-2-ylidene)penta-1,3-dien-1-yl)-3H-indol-1-ium-5-sulfonate], for which, on NL-hA1AR (HEK293T cells stably expressing NL-hA1AR, 1 h 37 °C, mean ± SEM, read-out: affinity values pKD, NL-hA1AR (converted)), the Kd is 0.0309 µM. The “greater affinity for the NL-A1AR compared to the NL-A2AAR (saturation binding)” value on NL-hA1AR (selectivity from pKD values) came to 7 fold. In the assay on SNAP-hA1AR, the “fluorescent labeling of SNAP-hA1AR at the plasma membrane” value is “Clear fluorescent labeling”, the “labeling of SNAP-hA1AR after pretreatment with 10 μM DPCPX” value is listed as “prevented the labeling” and the “fluorescence intensity after 10 μM DPCPX added to prelabeled cells” value was “did not change their fluorescence intensities”.
On to `CCCCn1c(=O)c2[nH]c(C34CCC(C(=O)NCCNC(=O)CCNC(=O)c5ccc(OC(=O)CCC(=O)NCCOCCOCCNC(=O)O[C@H]6CC/C=C/CCC6)c(F)c5)(CC3)CC4)nc2n(CCCC)c1=O` [Compound 12, 4-((3-((2-(4-(1,3-Dibutyl-2,6-dioxo-2,3,6,7-tetrahydro-1H-purin-8-yl)bicyclo[2.2.2]octane-1-carboxamido)ethyl)amino)-3-oxopropyl)carbamoyl)-2-fluorophenyl (R,E)-1-(Cyclooct-4-en-1-yloxy)-1,12-dioxo-5,8-dioxa-2,11-diazapentadecan-15-oate], for which, in the assay with SNAP-hA1AR, the “fluorescent labeling of SNAP-hA1AR at the plasma membrane” value was “Clear fluorescent labeling”, the “labeling of SNAP-hA1AR after pretreatment with 10 μM DPCPX” value is “prevented the labeling” and the “fluorescence intensity after 10 μM DPCPX added to prelabeled cells” value was “did not change their fluorescence intensities”.
